We go through 21 compounds from US9796700B2 (Celgene CAR LLC, priority 2013, dated 2017).

Test [1] addresses Erk1 (Homo sapiens (Human), UniProt P27361). The test is described as follows: Protein Mass Modification Assay (intact protein MALDI). The test is classed as binding. An outline of the steps:
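Human Erk1 was incubated 60 min at room temperature with a 10-fold molar excess of compound, then analysed as intact protein by MALDI with sinapinic acid matrix. The centroid mass shift versus untreated protein was divided by compound molecular weight to give percent modified protein.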

The target of test [2] is MEK1 activated ERK1 (Homo sapiens (Human), UniProt P27361). The test is described as follows: Omnia continuous-read kinase assay for potency against MEK1 activated ERK1. The format is biochemical. To be noted: MEK1 activated ERK1, WT, ATP at KM. The source says: Omnia Assay Protocol for Potency Assessment Against MEK1 Activated ERK1:
The protocol below describes continuous-read kinase assays to measure potency of compounds against activated ERK1 enzyme. The mechanics of the assay platform are best described by the vendor (Invitrogen, Carlsbad, Calif.) on their website at the following URL: invitrogen.com/site/us/en/home.html.
Briefly, a 1.25× stock of ERK1 enzyme (14-439-K) from Millipore (Billerica, Mass.), 5×ATP (AS001A) and ST17-Sox conjugated peptide substrate (KNZ1171C) were prepared in 1× kinase reaction buffer consisting of 20 mM Tris, pH 7.5, 5 mM MgCl2, 1 mM EGTA, 5 mM β-glycerophosphate, 5% glycerol (10× stock, KB002A) and 0.2 mM DTT. 10 μL of ATP/ST17-sox peptide substrate mix was combined with 0.5 μL volume of 100% DMSO and serially diluted compounds were prepared in 100% DMSO in a Corning (#3574) 384-well, white, non-binding surface microtiter plate (Corning, N.Y.). Kinase reactions were started with the addition of 40 μL of ERK1 solution and monitored every 71 seconds for 30-240 minutes at λex360/λem485 in a Synergy plate reader from BioTek (Winooski, Vt.). At the conclusion of each assay, progress curves from each well were examined for linear reaction kinetics and fit statistics (R^2, 95% confidence interval, absolute sum of squares). Initial velocity (0 minutes to ˜30+ minutes) from each reaction was determined from the slope of a plot of relative fluorescence units vs time (minutes or seconds) and then plotted against inhibitor concentration to estimate ^AppIC50 from log [Inhibitor] vs Response, Variable Slope model in GraphPad Prism from GraphPad Software (San Diego, Calif.).
[Reagent] used in optimized protocol:
[ERK1]=4 nM, [ATP]=50 μM, [ST17-Sox]=10 μM (ATP ^appKM 48 μM)
The results of this assay show the degree of inhibition of ERK activity, which is a direct measurement of inhibition of ERK activity. Results from this assay are reported in Table A under the column “ERK1 Omnia WT ATP KM IC50 (nM).”

Sequence of Erk1 (P27361 whole entry, looked up): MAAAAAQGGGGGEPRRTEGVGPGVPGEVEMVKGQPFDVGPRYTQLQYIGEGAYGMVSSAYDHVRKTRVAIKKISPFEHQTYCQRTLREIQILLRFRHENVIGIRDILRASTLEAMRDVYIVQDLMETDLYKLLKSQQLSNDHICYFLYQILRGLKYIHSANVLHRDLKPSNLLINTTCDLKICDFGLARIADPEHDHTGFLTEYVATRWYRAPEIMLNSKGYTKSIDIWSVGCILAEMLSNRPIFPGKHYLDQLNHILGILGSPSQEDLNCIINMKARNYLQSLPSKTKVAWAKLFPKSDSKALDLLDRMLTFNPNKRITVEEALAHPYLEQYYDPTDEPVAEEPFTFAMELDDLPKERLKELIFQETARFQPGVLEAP
Sequence of MEK1 activated ERK1 (P27361 whole entry): as the sequence (P27361 whole entry, looked up) above

Regarding `C=CC(=O)Nc1cc(OC)ccc1Nc1nc(Nc2cc(OC)nc(N3CCN(C)CC3)c2)ncc1C(F)(F)F` [Compound I-334, N-(5-methoxy-2-((2-((2-methoxy-6-(4-methylpiperazin-1-yl)pyridin-4-yl)amino)-5-(trifluoromethyl)pyrimidin-4-yl)amino)phenyl)acrylamide], the “ERK1 Mass Mod (%)” value in test [1] is on record as “E (provided a mass modification of ≧70%)”. For the same compound, the 50% inhibitory concentration (IC50) in test [2] is under 0.1 µM.

On to `C=CC(=O)Nc1ccccc1Nc1nc(N[C@H]2CCCN(C(N)=O)C2)ncc1C(F)(F)F` [Compound I-18, (S)-3-((4-((2-Acrylamidophenyl)amino)-5-(trifluoromethyl)pyrimidin-2-yl)amino)piperidine-1-carboxamide], for which the “ERK1 Mass Mod (%)” value in test [1] is listed as “E (provided a mass modification of ≧70%)”. Further, in test [2], the IC50 was under 0.1 µM.

In the case of `C#CCOc1cc(C)c(Nc2ncc(C(F)(F)F)c(Nc3ccc(C)cc3NC(=O)C=C)n2)cc1C(N)=O` [Compound I-362, 5-((4-((2-acrylamido-4-methylphenyl)amino)-5-(trifluoromethyl)pyrimidin-2-yl)amino)-4-methyl-2-(prop-2-yn-1-yloxy)benzamide], the “ERK1 Mass Mod (%)” value in test [1] is listed as “E (provided a mass modification of ≧70%)”. Moreover, in test [2], the IC50 is over 1 µM.

With `C=CC(=O)Nc1ccccc1Nc1nc(Nc2cc(OC)nc(N3CCN(S(C)(=O)=O)CC3)c2)ncc1C(F)(F)F` [Compound I-290, N-(2-((2-((2-Methoxy-6-(4-(methylsulfonyl)piperazin-1-yl)pyridin-4-yl)amino)-5-(trifluoromethyl)pyrimidin-4-yl)amino)phenyl)acrylamide], in test [1], the “ERK1 Mass Mod (%)” value is listed as “E (provided a mass modification of ≧70%)”. In addition, the IC50 in test [2] is over 1 µM.

For `C=CC(=O)Nc1cc(OC)ccc1Nc1nc(Nc2ccc(N3CCC[C@H]3CO)cc2C(F)(F)F)ncc1Cl` [Compound I-158, (S)—N-(2-((5-chloro-2-((4-(2-(hydroxymethyl)pyrrolidin-1-yl)-2-(trifluoromethyl)phenyl)amino)pyrimidin-4-yl)amino)-5-methoxyphenyl)acrylamide], the “ERK1 Mass Mod (%)” value in test [1] was “F (provided a mass modification of 31-69%)”. Also, in test [2], the IC50 is over 1 µM.

Regarding `C=CC(=O)Nc1cc(C)ccc1Nc1nc(Nc2cc(Cl)nc(OC)c2)ncc1Cl` [Compound I-244, N-(2-((5-chloro-2-((2-chloro-6-methoxypyridin-4-yl)amino)pyrimidin-4-yl)amino)-5-methylphenyl)acrylamide], in test [1], the “ERK1 Mass Mod (%)” value is “E (provided a mass modification of ≧70%)”. Also, the IC50 in test [2] is over 1 µM.

Turning to `C=CC(=O)N[C@@H]1CCCC[C@H]1Nc1nc(Nc2cc(C(=O)NOC)ccc2C)ncc1Cl` [Compound I-190, 3-((4-(((1R,2R)-2-acrylamidocyclohexyl)amino)-5-chloropyrimidin-2-yl)amino)-N-methoxy-4-methylbenzamide], in test [1], the “ERK1 Mass Mod (%)” value is reported as “F (provided a mass modification of 31-69%)”. Besides, in test [2], the IC50 is over 1 µM.

Consider `C=CC(=O)Nc1cc(OC)ccc1Nc1nc(Nc2ccc(N3CCN(C(=O)OC(C)(C)C)CC3)cc2OC)ncc1Cl` [Compound I-151, tert-butyl 4-(4-((4-((2-acrylamido-4-methoxyphenyl)amino)-5-chloropyrimidin-2-yl)amino)-3-methoxyphenyl)piperazine-1-carboxylate], for which the “ERK1 Mass Mod (%)” value in test [1] is on record as “F (provided a mass modification of 31-69%)”. In addition, the IC50 in test [2] was over 1 µM.

Turning to `C=CC(=O)N[C@H]1CCC[C@@H]1Nc1nc(Nc2cc(C(N)=O)ccc2C)ncc1Cl` [Compound I-215, 3-((4-(((1 S,2S)-2-acrylamidocyclopentyl)amino)-5-chloropyrimidin-2-yl)amino)-4-methylbenzamide], the “ERK1 Mass Mod (%)” value in test [1] is listed as “G (proived a mass modification ≦30%)”. Besides, the IC50 in test [2] was over 1 µM.

With `C=C(C)S(=O)(=O)Nc1cc(C)ccc1Nc1nc(N[C@H]2CCCN(C(=O)CO)C2)ncc1C(F)(F)F` [Compound I-47, (S)—N-(2-((2-((1-(2-Hydroxyacetyl)piperidin-3-yl)amino)-5-(trifluoromethyl)pyrimidin-4-yl)amino)-5-methylphenyl)prop-1-ene-2-sulfonamide], the “ERK1 Mass Mod (%)” value in test [1] is on record as “G (proived a mass modification ≦30%)”. For the same compound, in test [2], the half-inhibitory concentration (IC50) was under 0.1 µM.

Regarding `CC#CC(=O)Nc1ccccc1Nc1nc(N[C@H]2CCCN(C(=O)CO)C2)ncc1C(F)(F)F` [Compound I-29, (S)—N-(2-((2-((1-(2-Hydroxyacetyl)piperidin-3-yl)amino)-5-(trifluoromethyl)pyrimidin-4-yl)amino)phenyl)but-2-ynamide], in test [1], the “ERK1 Mass Mod (%)” value is listed as “G (proived a mass modification ≦30%)”. In test [2], the IC50 was over 1 µM.

Turning to `CC(=O)N1CCC[C@H](Nc2ncc(C(F)(F)F)c(N[C@@H]3[C@H](C(N)=O)[C@H]4C=C[C@@H]3C4)n2)C1` [Compound I-309, (1R,2R,3S,4S)-3-((2-(((S)-1-acetylpiperidin-3-yl)amino)-5-(trifluoromethyl)pyrimidin-4-yl)amino)bicyclo[2.2.1]hept-5-ene-2-carboxamide], the “ERK1 Mass Mod (%)” value in test [1] is “G (proived a mass modification ≦30%)”. For the same compound, the IC50 in test [2] was over 1 µM.

On to `C=CC(=O)Nc1ccccc1Nc1nc(N[C@H]2CCCN(C(=O)CO)C2)ncc1Cl` [Compound I-123, (S)—N-(2-((5-chloro-2-((1-(2-hydroxyacetyl)piperidin-3-yl)amino)pyrimidin-4-yl)amino)phenyl)acrylamide], for which the “ERK1 Mass Mod (%)” value in test [1] is “E (provided a mass modification of ≧70%)”. In addition, the IC50 in test [2] was under 0.1 µM.

`C=CC(=O)N(C)c1ccccc1Nc1nc(Nc2cc(C(=O)NOCCO)ccc2C#N)ncc1Cl` [Compound I-204, 3-((5-chloro-4-((2-(N-methylacrylamido)phenyl)amino)pyrimidin-2-yl)amino)-4-cyano-N-(2-hydroxyethoxy)benzamide]: in test [1], the “ERK1 Mass Mod (%)” value is recorded as “F (provided a mass modification of 31-69%)”. Besides, the IC50 in test [2] is over 1 µM.

With `C=C(C)C(=O)Nc1ccccc1Nc1nc(Nc2cc(C(N)=O)ccc2C)ncc1Cl` [Compound I-217, 3-((5-chloro-4-((2-methacrylamidophenyl)amino)pyrimidin-2-yl)amino)-4-methylbenzamide], the “ERK1 Mass Mod (%)” value in test [1] is given as “G (proived a mass modification ≦30%)”. In addition, the IC50 in test [2] was over 1 µM.

For the compound `C=CC(=O)Nc1cc(Cl)ccc1Nc1nc(Nc2cc(Cl)nc(OC)c2)ncc1Cl` [Compound I-247, N-(5-chloro-2-((5-chloro-2-((2-chloro-6-methoxypyridin-4-yl)amino)pyrimidin-4-yl)amino)phenyl)acrylamide], the “ERK1 Mass Mod (%)” value in test [1] is “F (provided a mass modification of 31-69%)”. The IC50 in test [2] is over 1 µM.

Take `C=CC(=O)Nc1ccccc1Nc1nc(N[C@H]2CCCN(C(C)=O)C2)ncc1C(F)(F)F` [Compound I-10, (S)—N-(2-(2-(1-acetylpiperidin-3-ylamino)-5-(trifluoromethyl)pyrimidin-4-ylamino)phenyl)acrylamide]: in test [1], the “ERK1 Mass Mod (%)” value was “E (provided a mass modification of ≧70%)”. Further, the IC50 in test [2] was under 0.1 µM.

As for `C=CC(=O)Nc1ccccc1Oc1ccnc(Nc2ccc(N3CCN(C(C)=O)CC3)cc2OC)n1` [Compound I-261, N-(2-((2-((4-(4-acetylpiperazin-1-yl)-2-methoxyphenyl)amino)pyrimidin-4-yl)oxy)phenyl)acrylamide], the “ERK1 Mass Mod (%)” value in test [1] is reported as “G (proived a mass modification ≦30%)”. Moreover, the IC50 in test [2] is over 1 µM.

`C=CC(=O)Nc1cc(OC)ccc1Nc1nc(Nc2ccc(N3CC[C@H](O)C3)cc2C#N)ncc1Cl` [Compound I-165, (S)—N-(2-((5-chloro-2-((2-cyano-4-(3-hydroxypyrrolidin-1-yl)phenyl)amino)pyrimidin-4-yl)amino)-5-methoxyphenyl)acrylamide]: in test [1], the “ERK1 Mass Mod (%)” value is listed as “F (provided a mass modification of 31-69%)”. Moreover, in test [2], the IC50 is over 1 µM.

`C=CC(=O)Nc1ccccc1Nc1nc(Nc2ccc(N(CCNC(=O)OC(C)(C)C)C(C)=O)cc2C(F)(F)F)ncc1Cl` [Compound I-170, tert-butyl (2-(N-(4-((4-((2-acrylamidophenyl)amino)-5-chloropyrimidin-2-yl)amino)-3-(trifluoromethyl)phenyl)acetamido)ethyl)carbamate]: the “ERK1 Mass Mod (%)” value in test [1] is on record as “E (provided a mass modification of ≧70%)”. In test [2], the IC50 was over 1 µM.

In the case of `C=CC(=O)Nc1ccccc1Nc1nc(Nc2ccnc(NC)c2)ncc1C(F)(F)F` [Compound I-321, N-(2-((2-((2-(methylamino)pyridin-4-yl)amino)-5-(trifluoromethyl)pyrimidin-4-yl)amino)phenyl)acrylamide], the “ERK1 Mass Mod (%)” value in test [1] is “E (provided a mass modification of ≧70%)”. The IC50 in test [2] was over 1 µM.

The term IC50 denotes the concentration that gives 50% inhibition.
